Read-outs that look alike come from different tables or passages of the source. Square brackets hold non-standard residues; d marks the D form. Peptide text beside a SMILES is read from it. * marks the point of attachment. dPhe(4-Cl) = N[C@H](Cc1ccc(Cl)cc1)C(=O)O; Nicotinoyl(6-NH2) = Nc1ccc(C(=O)*)cn1; d1Nal = N[C@H](Cc1cccc2ccccc12)C(=O)O; Lys(iPr) = CC(C)NCCCC[C@H](N)C(=O)O; d3Pal = N[C@H](Cc1cccnc1)C(=O)O; Picolinoyl = O=C(c1ccccn1)*; dOrn = NCCC[C@@H](N)C(=O)O
Legend:
[1] = Water solubility at room temperature; format: physicochemical
Protocol: Solubility of the novel GnRH antagonist was compared with that of orntide acetate at room temperature. In this experiment, 50 mg of the novel GnRH antagonist was weighed into a small glass container and 2 mL of purified water was added to it. […] An additional 3 mL of water was added, the solution mixed, and the pH was determined: 5.4. The same procedure was used to test the solubility of orntide acetate (known in the art as ornirelix).
Separately, another 50 mg aliquot was weighed out and 1 ml of water was added. This also dissolved. This is 50 mg/mL in concentration, which is 10 times what is possible to dissolve with orntide acetate.

testosterone = test: Testosterone suppression in vivo in the standard experimental rat model; set-up: species or system male Sprague Dawley rats; conditions: subcutaneous
Protocol: Briefly, male Sprague Dawley rats weighing approximately 300 g were purchased from Harlan (Indianapolis, Ind.) and used immediately after the quarantine period required by a University of Kentucky Animal Research Facility approved protocol.
The evaluation was conducted in two groups of rats. Group 1 included 6 rats to be administered with the novel GnRH antagonist. The other group was a control group consisting of 2 rats. The novel GnRH antagonist was administered subcutaneously (scapulae). Blood samples (1 mL) for testosterone level determinations were collected from the tail vein at 0, 1, 3, 6, 12, 24, and 48 hours. Serum was extracted by centrifugation at 2000 rpm for 15 min and stored at −20 C until determination of testosterone/LH levels. Rat plasma testosterone was determined using Active™ Testosterone RIA DSL-4000 kits purchased from Diagnostic Systems, Inc. Webster, Tex. To effect a sufficient washout period the doses were administered at weekly intervals.
A total of six rats were used for each dose tested. In the first week, each rat received a single dose of 15 μg. In the second week, the dose increased to 30 μg. Next, in the third week, each rat received a single dose of 60 μg. Table 2 is the control rat group with a total of 2 rats that received only vehicle.

Row | solubility ([1]; aqueous media, even at a pH lower than 5, read-out: solubility in aqueous media) [µg/mL] | solubility ([1]; water, pH 5, at a pH of 5, read-out: water solubility) [µg/mL] | Compound | gelling in aqueous media ([1]; at concentrations less than 5 mg/mL) | time to dissolve ([1]; 50 mg in 2 mL purified water, relatively gentle mixing, room temperature) | pH of the solution ([1]; 50 mg in 5 mL water (10 mg/mL)) | testosterone level reached after the castration period (testosterone; 15 μg/rat, after about 12 hours) [ng/mL] | duration of chemical castration of testosterone (≦0.5 ng/ml) (testosterone; 15 μg/rat, single dose) | serum testosterone level at 6 hours (testosterone; 15 μg/rat, single dose, week 1, mean of 6 rats) [ng/mL] | testosterone level by 24 hours (testosterone; 30 μg/rat, single dose) | duration of testosterone suppression (testosterone; 30 μg/rat, single dose, week 2)
1 | < 5000 | < 5000 | CC(=O)N[C@H](Cc1cccc2ccccc12)C(=O)N[C@H](Cc1ccc(Cl)cc1)C(=O)N[C@H](Cc1cccnc1)C(=O)N[C@@H](CO)C(=O)N[C@@H](CCCCNC(=O)c1ccccn1)C(=O)N[C@H](CCCNC(=O)c1ccc(N)nc1)C(=O)N[C@@H](CC(C)C)C(=O)N[C@@H](CCCCNC(C)C)C(=O)N1CCC[C@H]1C(=O)N[C@H](C)C(N)=O [orntide acetate, DNal^1, DpCIPhe^2, D3Pal^3 Ser^4, PicLys^5, D(6ANic)Orn^6, Leu^7, IprLys^8, Pro^9, DAla^10-NH2] (Ac-[d1Nal][dPhe(4-Cl)][d3Pal]SK(Picolinoyl)[dOrn](Nicotinoyl(6-NH2))L[Lys(iPr)]P[dA]-NH2; N-terminus and C-terminus assumed) | tends to gel even at that low concentration | – | – | – | – | – | – | –
2 | – | – | AcDNal^1, DpCIPhe^2, D3Pal^3 Ser^4, NicLys^5, D(6ANic)Orn^6, Leu^7, IprLys^8, Pro^9, DAla^10NH2 [novel GnRH antagonist] | – | less than 30 seconds | 5.4 | 1.5 | about 12 hours | 0.2 | greater than 0.5 ng/mL | at least 12 hours
